One test has as its system diarrhea. Conditions: rats, literature (Fittkau et al. 2004); cited from earlier work.
For test [1], the target named is β-glucuronidase activity in living E. coli cells (Escherichia coli, UniProt P05804). Type of test: cell-based. The arrangement: The full-length E. coli β-glucuronidase gene was obtained from bacterial genomic DNA; expressed in transfected cells; host or cells: E. coli HB101 transformed with pET-28a-GUS. The text has this:
(§1) Thus, two other β-glucuronidase activity assays were employed to examine the potency of inhibitors both in vitro and in cell-based studies. An absorbance assay based on the conversion of p-nitrophenyl glucuronide (PNPG) to p-nitrophenol (PNP) (Szasz (1967) Clin Chem 13:752-759), which absorbs at 410 nm, was employed as the primary in vitro assay (FIG. 9). A secondary assay involving the conversion of phenolphthalein glucuronide (PheG) to phenolphthalein (Phe), which absorbs at 540 nm, was also employed (FIG. 9). Id.
HB101 E. coli cells were grown to an OD600 of 0.6 in LB medium. These cells were then used for an in vivo assay. Reaction time and temperature were the same as previously described (see In Vitro β-Glucuronidase Assays). […] Absorbance was measured at the appropriate wavelength, depending on the substrate. […]
HB101 E. coli cells, transformed with the pET-28a vector containing the β-Glucuronidase gene, were grown to an OD600 of 0.6 in LB medium. […] Absorbance was measured at the appropriate wavelength, either 410 nm or 540 nm. Cell survivability in the presence of the nine inhibitors was assessed by plating a 10^−5 dilution of 200 μl of saturated cells after incubation with 100 μM of each inhibitor for 6 hours. […] Plated cells were allowed to incubate at 37° C. overnight, and colonies were counted to quantify the viability of the cells.

For a further test, the target named is E. coli β-glucuronidase (Escherichia coli, UniProt P05804). The format is biochemical. Details: The full-length E. coli β-glucuronidase gene was obtained from bacterial genomic DNA; 6xHis (N); made in house; host or cells: E. coli BL21-DE3. Conditions: in vitro, using PNPG.
E. coli β-glucuronidase, sequence (P05804 whole entry): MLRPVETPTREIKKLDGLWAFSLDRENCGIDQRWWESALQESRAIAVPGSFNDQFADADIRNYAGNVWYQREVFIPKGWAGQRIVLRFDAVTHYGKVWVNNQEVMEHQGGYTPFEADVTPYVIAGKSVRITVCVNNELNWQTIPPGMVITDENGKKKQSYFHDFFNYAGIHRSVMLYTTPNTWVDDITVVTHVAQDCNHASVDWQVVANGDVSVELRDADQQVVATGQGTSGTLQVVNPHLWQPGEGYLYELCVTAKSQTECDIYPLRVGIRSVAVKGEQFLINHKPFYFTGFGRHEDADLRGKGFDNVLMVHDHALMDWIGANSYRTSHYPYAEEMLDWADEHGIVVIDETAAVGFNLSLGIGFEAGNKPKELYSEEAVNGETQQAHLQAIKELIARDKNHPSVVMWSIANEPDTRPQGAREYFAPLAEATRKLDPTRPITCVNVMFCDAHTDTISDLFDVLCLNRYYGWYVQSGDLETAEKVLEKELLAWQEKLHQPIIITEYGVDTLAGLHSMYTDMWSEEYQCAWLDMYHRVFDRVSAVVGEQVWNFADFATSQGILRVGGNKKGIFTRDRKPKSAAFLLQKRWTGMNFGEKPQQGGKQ
Text: as §1
In vitro assays were conducted at 50 μL total volume in 96-well, clear bottom assay plates (Costar). Substrates consisted of PNPG or PheG (FIG. 9) and were acquired from Sigma. The presence of the hydrolysis product of each, PNP or Phe, was measured by absorbance at 410 nm or 540 nm, respectively. […] Absorbance was measured using a PHERAstar Plus microplate reader (BMG Labtech).
In vitro assays were conducted at 50 μL total volume in 96-well, clear bottom assay plates (Costar). […] The presence of the hydrolysis product of each, p-nitrophenol (PNP) and phenolphthalein (Phe), was measured by absorbance at 410 nm or 540 nm, respectively. […] Absorbance was measured using a PHERAstar Plus microplate reader (BMG Labtech). Data acquired was analyzed using Microsoft Excel and Sigmaplot 11.0.

These results are taken from US9334288B2, “Selective β-glucuronidase inhibitors as a treatment for side effects of camptothecin antineoplastic agents” (The University of North Carolina at Chapel Hill, priority 2009, dated 2016).

β-glucuronidase activity in living E. coli cells, sequence (P05804 whole entry): as above

For `O=C1OC(C(O)C(=O)O)C(O)C1O` (stereo not drawn) [saccharic acid 1,4-lactone], the “reversal of CPT-11 diarrhea / epithelial cell death” value with diarrhea is recorded as “partially reversed”.

In the case of `O=C(O)[C@H]1NC(=O)[C@H](O)[C@@H](O)[C@@H]1O` [GDL, glucaro-δ-lactam, reference compound], the “efficacy in living cells” value in test [1] is listed as “ineffective”. In addition, the IC50 (usually the concentration needed to halve the response being measured) on E. coli β-glucuronidase was 45 ± 3.1 µM.
